Experimental data: patent US11596692B1 (Incyte Corporation, priority 2018, dated 2023)
Where two headings read alike, the source gives them in different places.

Tested on: IRF3
Assay: IRF3 activation assay in THP-1 Dual cells
Format: cell-based
Conditions: Homo sapiens, read-out: THP1 IRF3 EC50
How it was run: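 THP-1 Dual cells (100,000/well) were treated with serially diluted compound for 24 h at 37° C, 5% CO2. IRF3 reporter activity in supernatant was read with QUANTI-Blue as absorbance at 620-655 nm after 2 h, with untreated cells as negative control. EC50 came from fitting percent control activity against log concentration.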

Structure (SMILES) | EC50 (THP-1, Table 4A) [µM] | EC50 (THP-1, Table 4B) [µM] | EC50 (THP-1, Table 4C) [µM]
CCn1nc(C)cc1C(=O)Nc1nc2cc(C(N)=O)cc(C)c2n1C/C=C/Cn1c2ccc(C(N)=O)cc2c2cnc(-c3cc(C)nn3CC)c(C#N)c21 [Example S26, (E)-5-(4-(5-carbamoyl-2-(1-ethyl-3-methyl-1H-pyrazole-5-carboxamido)-7-methyl-1H-benzo[d]imidazol-1-yl)but-2-en-1-yl)-4-cyano-3-(1-ethyl-3-methyl-1H-pyrazol-5-yl)-5H-pyrido[4,3-b]indole-8-carboxamide] | 0.5 to 1 | < 1 | 0.5 to 1
CCn1nc(C)cc1C(=O)Nc1nc2cc(C(N)=O)cc(OCCCNC(=O)[C@H](CC(=O)O)NC(=O)[C@H](CC(=O)O)NC(=O)[C@H](CCCNC(=N)N)NC(=O)[C@@H](N)CC(=O)O)c2n1C/C=C/Cn1c2nc(-c3cc(C)nn3CC)ncc2c2cc(C(N)=O)cc(OCCCOC)c21 [Example S42] |  |  | 0.2 to 0.5
CCn1nc(C)cc1C(=O)Nc1nc2cc(C(N)=O)cc(OCCCO)c2n1C/C=C/Cn1c2nc(-c3cc(C)nn3CC)ncc2c2cc(C(N)=O)cc(OCCCNC(=O)CCCC(=O)O)c21 [Example S53, (E)-5-(3-(6-carbamoyl-9-(4-(5-carbamoyl-2-(1-ethyl-3-methyl-1H-pyrazole-5-carboxamido)-7-(3-hydroxypropoxy)-1H-benzo[d]imidazol-1-yl)but-2-enyl)-2-(1-ethyl-3-methyl-1H-pyrazol-5-yl)-9H-pyrimido[4,5-b]indol-8-yloxy)propylamino)-5-oxopentanoic acid] |  |  | ≤ 0.05
CCn1nc(C)cc1C(=O)Nc1nc2cc(C(N)=O)cc(C)c2n1C/C=C/Cn1c2ccc(C(N)=O)cc2c2cnc(-c3cc(C(F)(F)F)nn3CC)nc21 [Example S9, (E)-9-(4-(5-carbamoyl-2-(1-ethyl-3-methyl-1H-pyrazole-5-carboxamido)-7-methyl-1H-benzo[d]imidazol-1-yl)but-2-enyl)-2-(1-ethyl-3-(trifluoromethyl)-1H-pyrazol-5-yl)-9H-pyrimido[4,5-b]indole-6-carboxamide] | 0.1 to 0.5 | < 1 | 0.2 to 0.5
CCn1nc(C)cc1C(=O)Nc1nc2cc(C(N)=O)cc(OCCCOC(=O)NCCC(=O)O)c2n1C/C=C/Cn1c(NC(=O)c2cc(C)nn2CC)nc2cc(C(N)=O)c3ccoc3c21 [Example S66, (E)-3-(((3-((5-carbamoyl-1-(4-(5-carbamoyl-2-(1-ethyl-3-methyl-1H-pyrazole-5-carboxamido)-1H-benzofuro[6,7-d]imidazol-1-yl)but-2-en-1-yl)-2-(1-ethyl-3-methyl-1H-pyrazole-5-carboxamido)-1H-benzo[d]imidazol-7-yl)oxy)propoxy)carbonyl)amino)propanoic acid] | ≤ 0.1 |  | 

The remaining lines, values ahead:

EC50 (THP-1, Table 4A) [µM] | EC50 (THP-1, Table 4B) [µM] | EC50 (THP-1, Table 4C) [µM] | Structure (SMILES)
 |  | 0.05 to 0.2 | CCn1nc(C)cc1C(=O)Nc1nc2cc(C(N)=O)cc(OCCCO)c2n1C/C=C/Cn1c2nc(-c3cc(C)nn3CC)ncc2c2cc(C(N)=O)cc(OCCCOC(=O)NCCC(=O)O)c21 [Example S62, (E)-3-((3-(6-carbamoyl-9-(4-(5-carbamoyl-2-(1-ethyl-3-methyl-1H-pyrazole-5-carboxamido)-7-(3-hydroxypropoxy)-1H-benzo[d]imidazol-1-yl)but-2-enyl)-2-(1-ethyl-3-methyl-1H-pyrazol-5-yl)-9H-pyrimido[4,5-b]indol-8-yloxy)propoxy)carbonylamino)propanoic acid]
≤ 0.1 | < 0.2 | ≤ 0.05 | CCn1nc(C)cc1C(=O)Nc1nc2cc(C(N)=O)cc(OCCCOC(=O)c3cc(C)nn3CC)c2n1C/C=C/Cn1c2nc(-c3cc(C)nn3CC)ncc2c2cc(C(N)=O)cc(OCCCN3CCOCC3)c21 [Example S19, (E)-3-((5-carbamoyl-1-(4-(6-carbamoyl-2-(1-ethyl-3-methyl-1H-pyrazol-5-yl)-8-(3-morpholinopropoxy)-9H-pyrimido[4,5-b]indol-9-yl)but-2-en-1-yl)-2-(1-ethyl-3-methyl-1H-pyrazole-5-carboxamido)-1H-benzo[d]imidazol-7-yl)oxy)propyl 1-ethyl-3-methyl-1H-pyrazole-5-carboxylate]
≤ 0.1 | < 0.2 | ≤ 0.05 | CCn1nc(C)cc1C(=O)Nc1nc2cc(C(N)=O)cc(OCCCOC(=O)c3cc(C)nn3CC)c2n1C/C=C/Cn1c2nc(-c3cc(C)nn3CC)ncc2c2cc(C(N)=O)cc(OCCCOC)c21 [Example S21, (E)-3-((5-carbamoyl-1-(4-(6-carbamoyl-2-(1-ethyl-3-methyl-1H-pyrazol-5-yl)-8-(3-methoxypropoxy)-9H-pyrimido[4,5-b]indol-9-yl)but-2-en-1-yl)-2-(1-ethyl-3-methyl-1H-pyrazole-5-carboxamido)-1H-benzo[d]imidazol-7-yl)oxy)propyl 1-ethyl-3-methyl-1H-pyrazole-5-carboxylate]
≤ 0.1 | < 0.2 | ≤ 0.05 | CCn1nc(C)cc1C(=O)Nc1nc2cc(C(N)=O)cc(OCCCOC(=O)c3cc(C)nn3CC)c2n1C/C=C/Cn1c2ccc(C(N)=O)cc2c2cnc(-c3cc(C)nn3CC)nc21 [Example S17, (E)-3-((5-carbamoyl-1-(4-(6-carbamoyl-2-(1-ethyl-3-methyl-1H-pyrazol-5-yl)-9H-pyrimido[4,5-b]indol-9-yl)but-2-en-1-yl)-2-(1-ethyl-3-methyl-1H-pyrazole-5-carboxamido)-1H-benzo[d]imidazol-7-yl)oxy)propyl 1-ethyl-3-methyl-1H-pyrazole-5-carboxylate]
